Assay results published in patent US8318769B2, “Substituted sulfonamide compounds” (Gruenethal GmbH, priority 2008, dated 2012).

Tests used:
[1] = target: T1, human bradykinin 1 receptor (B1R) (Homo sapiens, UniProt P46663); experiment: FLIPR Ca2+ assay, B1R antagonism, human; type: cell-based; conditions: 10 μM test substance; CHO K1 cells with human B1R gene (hB1R cells); Lys-Des-Arg9-bradykinin at EC80; % inhibition compared with the maximum achievable inhibition; read-out: B1R antagonism, human [10 μM] % inhibition
T1 construct: expressed in transfected cells
T1 sequence (P46663 1-353): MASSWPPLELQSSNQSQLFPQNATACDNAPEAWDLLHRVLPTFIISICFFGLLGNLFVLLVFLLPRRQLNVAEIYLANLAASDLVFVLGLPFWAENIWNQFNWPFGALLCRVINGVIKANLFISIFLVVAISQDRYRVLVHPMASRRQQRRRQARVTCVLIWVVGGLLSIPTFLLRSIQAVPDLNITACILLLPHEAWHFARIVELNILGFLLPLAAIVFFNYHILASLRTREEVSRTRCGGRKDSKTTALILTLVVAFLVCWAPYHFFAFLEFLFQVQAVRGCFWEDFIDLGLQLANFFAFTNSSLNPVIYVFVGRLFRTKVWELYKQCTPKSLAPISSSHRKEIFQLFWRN
Outline: (§1)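 Antagonism is given as % of maximum achievable suppression of agonist-evoked Ca2+ influx, measured by Fluo-4 peak fluorescence in FLIPR. Stable hB1R or rB1R CHO K1 lines received 10 μM compound for 10-20 min before EC80 Lys-Des-Arg9-bradykinin (human) or Des-Arg9-bradykinin (rat).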

[2] = target: T2, bradykinin 1 receptor (B1R) of the rat (Rattus norvegicus, UniProt P97583); experiment: FLIPR Ca2+ assay, B1R antagonism, rat; type: cell-based; conditions: CHO-K1, 10 μM test substance; CHO K1 cells with rat B1R gene (rB1R cells); Des-Arg9-bradykinin at EC80; % inhibition compared with the maximum achievable inhibition; read-out: B1R antagonism, rat [10 μM] % inhibition
T2 construct: expressed in transfected cells
T2 sequence (P97583 1-337): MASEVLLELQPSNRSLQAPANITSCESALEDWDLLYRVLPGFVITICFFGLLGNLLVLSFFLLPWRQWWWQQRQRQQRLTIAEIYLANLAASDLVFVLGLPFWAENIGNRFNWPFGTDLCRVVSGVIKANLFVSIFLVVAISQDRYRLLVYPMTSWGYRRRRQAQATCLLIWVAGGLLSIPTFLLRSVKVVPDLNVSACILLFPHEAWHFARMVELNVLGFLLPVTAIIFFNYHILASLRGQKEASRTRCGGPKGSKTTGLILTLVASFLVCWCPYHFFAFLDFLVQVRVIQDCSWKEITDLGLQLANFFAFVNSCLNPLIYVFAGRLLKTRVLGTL
Outline: as §1

| SMILES | inhibition at 10 µM [1] | inhibition at 10 µM [2] |
| --- | --- | --- |
| COc1cc(C)c(S(=O)(=O)N(C)CCOCC(=O)N2CCC(OCCN3CCCC3)(c3cccnc3)CC2)c(C)c1C [Example 113, 4-methoxy-N,2,3,6-tetramethyl-N-[2-[2-oxo-2-[4-pyridin-3-yl-4-(2-pyrrolidin-1-yl-ethoxy)-piperidin-1-yl]-ethoxy]-ethyl]-benzenesulfonic acid amide] | 100% | 103% |
| COc1cc(C)c(S(=O)(=O)N2CCCCC2CCCC(=O)N2CCC(OCCN3CCCC3)(c3cccc(F)c3)CC2)c(C)c1 (stereo not shown) [Example 89, 1-[4-(3-fluorophenyl)-4-(2-pyrrolidin-1-yl-ethoxy)-piperidin-1-yl]-4-[1-[(4-methoxy-2,6-dimethyl-phenyl)sulfonyl]-piperidin-2-yl]-butan-1-one] | 100% | 99% |
